Source: the supplement of paper PMC10307832

Assays:
Experiment in all cases: relative viability (nuclei count vs DMSO), 5 days (fraction); higher = more cells survive
AT-7519 + Dasatinib = compound: O=C(NC1CCNCC1)c1n[nH]cc1NC(=O)c1c(Cl)cccc1Cl [AT-7519] + Cc1nc(Nc2ncc(C(=O)Nc3c(C)cccc3Cl)s2)cc(N2CCN(CCO)CC2)n1 [Dasatinib] (partner 0.075 µM)
Summary of the method: (§1)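 Relative viability is defined as nuclei in treated wells over nuclei in vehicle wells. Duplicate plates were run and medians reported. Lung cancer cell lines in 1536-well plates were dosed by pin tool one day after seeding, with one drug or with a fixed anchor-drug dose plus five library-drug doses (not always all listed) in √10 steps, and nuclei were counted after 5 days.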

[1] = compound: C1=CC2=C(C=C(C(=C2N=C1)O)N=NC3=CC4=C(C=C3)C=C(C=C4)S(=O)(=O)O)S(=O)(=O)O + Nc1ncn([C@H]2C[C@H](O)[C@@H](CO)O2)c(=O)n1 [Decitabine] (partner 2 µM)
Summary of the method: as §1

AT-7519 + Luminespib = compound: O=C(NC1CCNCC1)c1n[nH]cc1NC(=O)c1c(Cl)cccc1Cl [AT-7519] + CCNC(=O)c1noc(-c2cc(C(C)C)c(O)cc2O)c1-c1ccc(CN2CCOCC2)cc1 [Luminespib] (partner 0.01 µM)
Summary of the method: as §1

[2] = compound: C1=CC2=C(C=C(C(=C2N=C1)O)N=NC3=CC4=C(C=C3)C=C(C=C4)S(=O)(=O)O)S(=O)(=O)O + CC(C)C[C@H](NC(=O)[C@H](Cc1ccccc1)NC(=O)c1cnccn1)B(O)O [Bortezomib] (partner 0.002 µM)
Summary of the method: as §1

Cell Line	relative viability (AT-7519 + Dasatinib; first compound 0.01 µM)	relative viability (AT-7519 + Dasatinib; first compound 0.03162 µM)	relative viability (AT-7519 + Dasatinib; first compound 0.3162 µM)	relative viability (AT-7519 + Dasatinib; first compound 1 µM)	relative viability ([1]; first compound 0.08 µM)	relative viability ([1]; first compound 0.253 µM)	relative viability ([1]; first compound 0.8 µM)	relative viability ([1]; first compound 2.53 µM)	relative viability ([1]; first compound 8 µM)	relative viability (AT-7519 + Luminespib; first compound 0.01 µM)	relative viability (AT-7519 + Luminespib; first compound 0.03162 µM)	relative viability (AT-7519 + Luminespib; first compound 0.3162 µM)	relative viability (AT-7519 + Luminespib; first compound 1 µM)	relative viability ([2]; first compound 0.08 µM)	relative viability ([2]; first compound 0.253 µM)	relative viability ([2]; first compound 2.53 µM)	relative viability ([2]; first compound 8 µM)	relative viability ([2]; first compound 0.8 µM)
NCI-H441	0.574	0.654	0.421	0.324	0.245	0.246	0.238	0.252	0.248	0.424	0.367	0.313	0.242	0.576	0.385	0.484	0.718	
NCI-H460	0.545	0.558	0.438	0.243	0.506	0.487	0.501	0.497	0.387	0.0297	0.0263	0.0291	0.0206	1.39	1.04	1.19	1.09	0.99
NCI-H520	0.244	0.241	0.174	0.166	0.525	0.519	0.542	0.468	0.508	0.233	0.239	0.263	0.209	0.777	0.598	0.551	0.459	0.619
NCI-H596	0.586	0.501	0.629	0.612	1.1	0.954	1.01	1.02	1.38	0.988	1	0.846	0.827	1.43	1.16	1.02	0.769	0.974
NCI-H647	0.184	0.23	0.195	0.131	0.35	0.412	0.415	0.45	0.401	0.209	0.244	0.148	0.0855	1.2	1.08	0.953	1.19	0.97
NCI-H650	0.437	0.423	0.465	0.488	0.324	0.354	0.329	0.317	0.31	0.75	0.7	0.838	0.611	0.782	0.748	0.758	0.614	0.94
NCI-H661	0.732	0.849	0.71	0.392	0.566	0.446	0.58	0.551	0.573	1.01	0.92	0.975	0.219	0.838	0.838	0.829	0.809	0.769
NCI-H727	0.392	0.401	0.257	0.135	0.951	0.854	0.793	0.929	0.801	0.343	0.339	0.279	0.24	0.917	0.945	0.853	0.816	0.854
NCI-H838	0.298	0.285	0.259	0.249	0.469	0.441	0.434	0.514	0.44	0.239	0.292	0.276	0.13	0.753	0.909	0.633	0.764	0.674
